Test results as given in ChEMBL document CHEMBL5614416, “Discovery of novel thiophene[3,2-d]pyrimidine-based tubulin inhibitors with enhanced antitumor efficacy for combined use with anti-pd-l1 immunotherapy in melanoma” (Eur J Med Chem, 2024).
Activity calls are given as the source filed them. No cut-off for these calls is given here.

Assays:
[1] = system: B16-F10; assay: Induction of cell cycle arrest in mouse B16-F10 cells assessed as accumulation of cells at G2 phase at 2 nM incubated for 12 hrs by flow cytometry (reference value: 13.6 %); format: functional
[2] = system: MCF7; assay: Induction of apoptosis in human MCF7 cells assessed as decrease in Bcl-2 level upto 30 nM incubated for 24 hrs by Western blot analysis; format: functional, cell-based
[3] = Toxicity in C57 mouse xenografted with mouse B16-F10 cells assessed as monocytes count at 3.5 mg/kg, ip qd for 12 days in presence of NP-19 by biochemical analysis (reference value: 0.080 to 0.610 10^9/L); format: organism-based; settings: in vivo, 288 h, time 12 day
[4] = system: B16-F10; assay: Induction of cell cycle arrest in mouse B16-F10 cells assessed as accumulation of cells at S phase at 0.5 nM incubated for 12 hrs by flow cytometry (reference value: 30.5 %); format: functional
[5] = Toxicity in C57 mouse xenografted with mouse B16-F10 cells assessed as eosinophil level at 7 mg/kg, ip qd for 12 days by biochemical analysis (reference value: 0.700 to 1.000 %); format: organism-based; settings: in vivo, 288 h, time 12 day
[6] = Toxicity in C57 mouse xenografted with mouse B16-F10 cells assessed as morphological abnormality in liver at 3.5 mg/kg, ip qd for 12 days in presence of NP-19 by H and E staining based analysis; format: organism-based; settings: in vivo, 288 h, time 12 day
[7] = system: B16-F10; assay: Induction of apoptosis in mouse B16-F10 cells assessed as viable cells at 0.5 nM incubated for 12 hrs by Annexin V-FITC/PI staining based flow cytometry (reference value: 93.6 %); format: functional; settings: read-out: Activity
[8] = Toxicity in C57 mouse xenografted with mouse B16-F10 cells assessed as morphological abnormality in kidney at 7 mg/kg, ip qd for 12 days by H and E staining based analysis; format: organism-based; settings: in vivo, 288 h, time 12 day
[9] = Toxicity in C57 mouse xenografted with mouse B16-F10 cells assessed as morphological abnormality in heart at 7 mg/kg, ip qd for 12 days by H and E staining based analysis; format: organism-based; settings: in vivo, 288 h, time 12 day
[10] = Toxicity in C57 mouse xenografted with mouse B16-F10 cells assessed as MCHC level at 3.5 mg/kg, ip qd for 12 days in presence of NP-19 by biochemical analysis (reference value: 324.000 to 683.000 g/L); format: organism-based; settings: in vivo, 288 h, time 12 day
[11] = Toxicity in C57 mouse xenografted with mouse B16-F10 cells assessed as MCV level at 7 mg/kg, ip qd for 12 days by biochemical analysis (reference value: 15.800 to 48.900 fL); format: organism-based; settings: in vivo, 288 h, time 12 day
[12] = system: B16-F10; assay: Induction of cell cycle arrest in mouse B16-F10 cells assessed as accumulation of cells at S phase at 2 nM incubated for 12 hrs by flow cytometry (reference value: 30.5 %); format: functional
[13] = system: MCF7; assay: Inhibition of cell migration in human MCF7 cells assessed as reduction in wound closure incubated for 24 hrs by wound healing assay; format: functional, cell-based
[14] = Toxicity in C57 mouse xenografted with mouse B16-F10 cells assessed as body weight change at 7 mg/kg, ip qd for 12 days; format: organism-based; settings: in vivo, 288 h, time 12 day
[15] = Toxicity in C57 mouse xenografted with mouse B16-F10 cells assessed as monocytes count at 7 mg/kg, ip qd for 12 days by biochemical analysis (reference value: 0.080 to 0.610 10^9/L); format: organism-based; settings: in vivo, 288 h, time 12 day
[16] = system: NCI-H23; assay: Antiproliferative activity against human NCI-H23 cells incubated for 48 hrs by MTT assay; format: functional, cell-based; settings: NCI-H23, 48 h
[17] = Toxicity in C57 mouse xenografted with mouse B16-F10 cells assessed as RDW-CV at 3.5 mg/kg, ip qd for 12 days in presence of NP-19 by biochemical analysis (reference value: 14.300 to 14.300); format: organism-based; settings: in vivo, 288 h, time 12 day
[18] = Toxicity in C57 mouse xenografted with mouse B16-F10 cells assessed as MPV level at 7 mg/kg, ip qd for 12 days by biochemical analysis (reference value: 6.200 to 15.000); format: organism-based; settings: in vivo, 288 h, time 12 day
[19] = system: MCF7; assay: Inhibition of cell migration in human MCF7 cells assessed as migration rate at 2 nM incubated for 24 hrs by wound healing assay (reference value: 18.1 %); format: functional; set-up: scale not given: the % may be the effect or the level left
[20] = system: HeLa; assay: Antiproliferative activity against human HeLa cells incubated for 48 hrs by MTT assay; format: functional, cell-based
[21] = Toxicity in C57 mouse xenografted with mouse B16-F10 cells assessed as morphological abnormality in heart at 3.5 mg/kg, ip qd for 12 days in presence of NP-19 by H and E staining based analysis; format: organism-based; settings: in vivo, 288 h, time 12 day
[22] = Toxicity in C57 mouse xenografted with mouse B16-F10 cells assessed as body weight change at 3.5 mg/kg, ip qd for 12 days in presence of NP-19; format: organism-based; settings: in vivo, 288 h, time 12 day
[23] = system: B16-F10; assay: Induction of cell cycle arrest in mouse B16-F10 cells assessed as accumulation of cells at G1 phase at 0.5 nM incubated for 12 hrs by flow cytometry (reference value: 52.0 %); format: functional
[24] = system: B16-F10; assay: Antiproliferative activity against mouse B16-F10 cells incubated for 48 hrs by MTT assay; format: functional, cell-based; settings: B16-F10, 48 h
[25] = Toxicity in C57 mouse xenografted with mouse B16-F10 cells assessed as eosinophil level at 3.5 mg/kg, ip qd for 12 days in presence of NP-19 by biochemical analysis (reference value: 0.700 to 1.000 %); format: organism-based; settings: in vivo, 288 h, time 12 day
[26] = system: B16-F10; assay: Induction of apoptosis in mouse B16-F10 cells assessed as early apoptotic cells at 1 nM incubated for 12 hrs by Annexin V-FITC/PI staining based flow cytometry (reference value: 3.81 %); format: functional
[27] = Inhibition of pig brain tubulin polymerization by spectrophotometric method
[28] = Toxicity in C57 mouse xenografted with mouse B16-F10 cells assessed as basophil count at 7 mg/kg, ip qd for 12 days by biochemical analysis (reference value: 0.060 to 25.500 10^9/L); format: organism-based; settings: in vivo, 288 h, time 12 day
[29] = system: B16-F10; assay: Induction of cell cycle arrest in mouse B16-F10 cells assessed as accumulation of cells at G1 phase at 1 nM incubated for 12 hrs by flow cytometry (reference value: 52.0 %); format: functional
[30] = system: B16-F10; assay: Inhibition of cell migration in mouse B16-F10 cells assessed as migration rate at 2 nM incubated for 24 hrs by wound healing assay (reference value: 61.1 %); format: functional; set-up: scale not given: the % may be the effect or the level left
[31] = system: HCT-116; assay: Antiproliferative activity against human HCT-116 cells incubated for 48 hrs by MTT assay; format: functional, cell-based; settings: HCT-116, 48 h
[32] = Toxicity in C57 mouse xenografted with mouse B16-F10 cells assessed as neutrophil count at 7 mg/kg, ip qd for 12 days by biochemical analysis (reference value: 2.130 to 5.46 10^9/L); format: organism-based; settings: in vivo, 288 h, time 12 day
[33] = system: B16-F10; assay: Induction of apoptosis in mouse B16-F10 cells assessed as late apoptotic cells at 0.5 nM incubated for 12 hrs by Annexin V-FITC/PI staining based flow cytometry (reference value: 2.39 %); format: functional
[34] = system: B16-F10; assay: Inhibition of cell migration in mouse B16-F10 cells assessed as migration rate at 4 nM incubated for 24 hrs by wound healing assay (reference value: 61.1 %); format: functional; set-up: scale not given: the % may be the effect or the level left

## Cc1nc(N(C)c2ccc3c(ccn3C)c2)c2sccc2n1
[1]
  Activity: 72.8%
[2]
  Activity: Active
[3]
  Activity: 0.06 10^9/L
[4]
  Activity: 15.9%
[5]
  Activity: 0.3%
[6]
  Activity: Non-Toxic
[7]
  viability at 0.0005 µM: 80.1%
[8]
  Activity: Non-Toxic
[9]
  Activity: Non-Toxic
[10]
  Activity: 343 g/L
[11]
  Activity: 15.8 fL
[12]
  Activity: 19.3%
[13]
  inhibition: Dose-Dependent Effect
[14]
  Activity: Non-Toxic
[15]
  Activity: 0.01 10^9/L
[16]
  IC50: 8.94 nM
[17]
  Activity: 14
[18]
  Activity: 6
[19]
  Activity: 8.84%
[20]
  IC50: 5.37 nM
[21]
  Activity: Non-Toxic
[22]
  Activity: Non-Toxic
[23]
  Activity: 21.3%
[24]
  IC50: 11.7 nM
[25]
  Activity: 0.3%
[26]
  Activity: 11%
[27]
  IC50: 2540 nM
[28]
  Activity: 0.01 10^9/L
[29]
  Activity: 13.8%
[30]
  Activity: 34.6%
[31]
  IC50: 0.38 nM
[32]
  Activity: 0.85 10^9/L
[33]
  Activity: 7.06%
[34]
  Activity: 5.23%
